Values of other authors, collected in paper PMC5340309 (Biomacromolecules, 2016).

Tests used:
Details in all cases: included for comparison
[1] = tested on: K. pneumoniae (ATCC 13383)
[2] = tested on: P. aeruginosa (ATCC27853)
[3] = tested on: Methicillin-resistant S. epidermidis (MRSE, RP62A)
[4] = tested on: Methicillin-resistant S. aureus (MRSA, ATCC 33591)

pexiganan
MIC K. pneumonia (Gram−) [1]: 32 mg/L | MIC P. aeruginosa (Gram−) [2]: 16 mg/L | MIC MRSE (Gram+) [3]: 8 mg/L | MIC MRSA (Gram+) [4]: 16 mg/L
